Experimental data as given in patent publication US20210154190A1, “SHP2 INHIBITOR COMPOSITIONS AND METHODS FOR TREATING CANCER” (Revolution Medicines, Inc., priority 2018, published 2021).

How the values were obtained:
[1] = molecular target: T1, SHP2 T253M/Q257L (Homo sapiens, UniProt Q06124, Q257L/T253M); assay: SHP2 allosteric inhibition assay (DiFMUP), T253M/Q257L; format: biochemical; set-up: expressed in transfected cells; settings: Variant T253M/Q257L
T1 sequence (Q06124 1-593 T253M/Q257L): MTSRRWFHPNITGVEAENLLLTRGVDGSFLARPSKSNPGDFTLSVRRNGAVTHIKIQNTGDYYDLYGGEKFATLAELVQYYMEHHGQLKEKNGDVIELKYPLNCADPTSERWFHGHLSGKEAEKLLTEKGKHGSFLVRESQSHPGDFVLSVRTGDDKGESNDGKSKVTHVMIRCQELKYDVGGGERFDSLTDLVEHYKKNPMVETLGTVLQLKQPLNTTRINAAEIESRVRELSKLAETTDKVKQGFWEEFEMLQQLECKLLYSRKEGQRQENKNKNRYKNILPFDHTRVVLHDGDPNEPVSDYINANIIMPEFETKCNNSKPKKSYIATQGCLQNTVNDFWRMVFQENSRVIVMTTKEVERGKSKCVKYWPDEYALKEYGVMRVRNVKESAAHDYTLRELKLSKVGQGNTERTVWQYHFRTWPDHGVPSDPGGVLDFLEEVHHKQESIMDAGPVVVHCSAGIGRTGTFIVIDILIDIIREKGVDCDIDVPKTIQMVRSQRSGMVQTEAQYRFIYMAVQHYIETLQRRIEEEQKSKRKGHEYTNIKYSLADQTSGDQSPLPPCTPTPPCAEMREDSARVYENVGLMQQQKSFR

[2] = molecular target: T2, SHP2 L262R (Homo sapiens, UniProt Q06124, L262R); assay: EGF-induced pERK AlphaLISA in T-REx-293-SHP2 cells, L262R; format: cell-based; settings: Variant L262R
T2 construct: expressed in transfected cells; host or cells: Flp-In T-REx-293 (T-REx-293-SHP2)
Experimental: (§1) An experimental system was creating to test the activity of SHP2 mutants on an isogenic background (FIG. 6). The Flp-In T-REx-293 cell line was obtained from Gibco® and cultivated in high glucose DMEM™ containing 2 mM L-glutamine (Hyclone®), supplemented with 10% FBS (Hyclone®), 1% penicillin/streptomycin (Gibco®), 100 μg/mL Zeocin™ (Gibco®), and 15 μg/mL blasticidin (Gibco®) in a humidified cell culture incubator at 37° C., 5% CO2.
(§2) Wild type or mutant SHP2 variants were synthesized and subcloned into the pcDNA5/FRT/TO vector (ThermoFisher). Plasmids were co-transfected with the pOG44 Flp recombinase expression plasmid (ThermoFisher®) into Flp-In T-REx-293 cells using X-tremegene 9 DNA transfection reagent (Sigma®), according to the manufacturer's instructions. […]
(§3) For the final 5 minutes of drug treatment, cells were stimulated with 50 ng/mL Epidermal Growth Factor (Sigma®). […] Samples were read using an EnVision Multilabel Plate Reader (Perkin Elmer®) using standard AlphaLISA settings. Assay data was plotted and EC50 values were determined using four-parameter concentration-response model in GraphPad Prism 7. […]

[3] = molecular target: T3, SHP2 G60V (Homo sapiens, UniProt Q06124, G60V); assay: EGF-induced pERK AlphaLISA in T-REx-293-SHP2 cells, G60V; format: cell-based; settings: Variant G60V
T3 construct: expressed in transfected cells; host or cells: Flp-In T-REx-293 (T-REx-293-SHP2)
Experimental: as §1, §2, §3

[4] = molecular target: T4, SHP2 Q506P (Homo sapiens, UniProt Q06124, Q506P); assay: EGF-induced pERK AlphaLISA in T-REx-293-SHP2 cells, Q506P; format: cell-based; settings: Variant Q506P
T4 construct: expressed in transfected cells; host or cells: Flp-In T-REx-293 (T-REx-293-SHP2)
Experimental: as §1, §2, §3

[5] = molecular target: T5, SHP2 F285S (Homo sapiens, UniProt Q06124, F285S); assay: EGF-induced pERK AlphaLISA in T-REx-293-SHP2 cells, F285S; format: cell-based; settings: Variant F285S
T5 construct: expressed in transfected cells; host or cells: Flp-In T-REx-293 (T-REx-293-SHP2)
Experimental: as §1, §2, §3

[6] = molecular target: T6, SHP2 E69K (Homo sapiens, UniProt Q06124, E69K); assay: EGF-induced pERK AlphaLISA in T-REx-293-SHP2 cells, E69K; format: cell-based; settings: Variant E69K
T6 construct: expressed in transfected cells; host or cells: Flp-In T-REx-293 (T-REx-293-SHP2)
Experimental: as §1, §2, §3

[7] = molecular target: T7, SHP2 S189A (Homo sapiens, UniProt Q06124, S189A); assay: EGF-induced pERK AlphaLISA in T-REx-293-SHP2 cells, S189A; format: cell-based; settings: Variant S189A
T7 construct: expressed in transfected cells; host or cells: Flp-In T-REx-293 (T-REx-293-SHP2)
Experimental: as §1, §2, §3

[8] = molecular target: T8, SHP2 E76K (Homo sapiens, UniProt Q06124, E76K); assay: EGF-induced pERK AlphaLISA in T-REx-293-SHP2 cells, E76K; format: cell-based; settings: Variant E76K
T8 construct: expressed in transfected cells; host or cells: Flp-In T-REx-293 (T-REx-293-SHP2)
Experimental: as §1, §2, §3

[9] = molecular target: T9, SHP2 G503V (Homo sapiens, UniProt Q06124, G503V); assay: EGF-induced pERK AlphaLISA in T-REx-293-SHP2 cells, G503V; format: cell-based; settings: Variant G503V
T9 construct: expressed in transfected cells; host or cells: Flp-In T-REx-293 (T-REx-293-SHP2)
Experimental: as §1, §2, §3

[10] = molecular target: T10, SHP2 WT (Homo sapiens, UniProt Q06124); assay: EGF-induced pERK AlphaLISA in T-REx-293-SHP2 cells, WT; format: cell-based; settings: Variant WT
T10 construct: expressed in transfected cells; host or cells: Flp-In T-REx-293 (T-REx-293-SHP2)
Experimental: as §1, §2, §3

[11] = molecular target: T1, SHP2 T253M/Q257L; assay: EGF-induced pERK AlphaLISA in T-REx-293-SHP2 cells, T253M/Q257L; format: cell-based; set-up: expressed in transfected cells; host or cells: Flp-In T-REx-293 (T-REx-293-SHP2)
Experimental: as §1, §2, §3

[12] = molecular target: T11, SHP2 S502P (Homo sapiens, UniProt Q06124, S502P); assay: EGF-induced pERK AlphaLISA in T-REx-293-SHP2 cells, S502P; format: cell-based; settings: Variant S502P
T11 construct: expressed in transfected cells; host or cells: Flp-In T-REx-293 (T-REx-293-SHP2)
Experimental: as §1, §2, §3

[13] = molecular target: T12, SHP2 A72V (Homo sapiens, UniProt Q06124, A72V); assay: EGF-induced pERK AlphaLISA in T-REx-293-SHP2 cells, A72V; format: cell-based; settings: Variant A72V
T12 construct: expressed in transfected cells; host or cells: Flp-In T-REx-293 (T-REx-293-SHP2)
Experimental: as §1, §2, §3

[14] = molecular target: T13, SHP2 D61G (Homo sapiens, UniProt Q06124, D61G); assay: EGF-induced pERK AlphaLISA in T-REx-293-SHP2 cells, D61G; format: cell-based; settings: Variant D61G
T13 construct: expressed in transfected cells; host or cells: Flp-In T-REx-293 (T-REx-293-SHP2)
Experimental: as §1, §2, §3

For `Cc1nc(N2CCC3(CC2)CO[C@@H](C)[C@H]3N)c(CO)nc1-c1cccc(Cl)c1Cl` [Compound B], the Biochemical sensitivity [1] was “no (Sensitive if IC50 < 2000 nM)”, the Cellular sensitivity [2] was “yes (Sensitive if IC50 < 2000 nM)” and the Cellular sensitivity [3] was “no (Sensitive if IC50 < 2000 nM)”. For the same compound, the Cellular sensitivity [4] was “yes (Sensitive if IC50 < 2000 nM)”, the Cellular sensitivity [5] was “yes (Sensitive if IC50 < 2000 nM)” and the Cellular sensitivity [6] was “yes (Sensitive if IC50 < 2000 nM)”. The Cellular sensitivity [7] was “yes (Sensitive if IC50 < 2000 nM)”, the Cellular sensitivity [8] was “no (Sensitive if IC50 < 2000 nM)” and the Cellular sensitivity [9] was “no (Sensitive if IC50 < 2000 nM)”. For the same compound, the Cellular sensitivity [10] was “yes (Sensitive if IC50 < 2000 nM)”, the “inhibition of engineered double mutant in the Compound B binding site” value ([11]; T253M/Q257L, cellular pERK) was “insensitive to inhibition” and the Cellular sensitivity ([11]; Variant T253M/Q257L) was “no (Sensitive if IC50 < 2000 nM)”. For the same compound, the Cellular sensitivity [12] was “yes (Sensitive if IC50 < 2000 nM)”, the Cellular sensitivity [13] was “no (Sensitive if IC50 < 2000 nM)” and the Cellular sensitivity [14] was “yes (Sensitive if IC50 < 2000 nM)”.
